Measurements taken from patent US20060142204A1, “Pyrrolidine derivatives for use in treating heaptitis c virus infection” (GENOSCIENCE, priority 2002, published 2006).
Read-outs that look alike come from different tables or passages of the source. Non-standard residues stand in square brackets, D forms with d. Residues, ends and D or L forms follow the SMILES beside them. *: point of attachment. dGla = N[C@H](CC(C(=O)O)C(=O)O)C(=O)O; Hyp = O=C(O)[C@@H]1C[C@@H](O)CN1; Cha = N[C@@H](CC1CCCCC1)C(=O)O; Abu = CC[C@H](N)C(=O)O; tBu = CC(C)(C)*

Tests used:
[1] = target: full-length NS3/NS4A complex (Hepatitis C virus genotype 1a, UniProt P27958); experiment: biochemical
Excerpt: Operating Method for HCV NS3-4A Activity Assay:
Inhibition data were obtained on the full-length NS3/NS4A complex. […] A summary of the NS3 protease activity assay is described bellow.
We used the full-length NS4A-NS3 protease and a recombinant EGPF-NS5A/B-CBD fusion protein serving as a fluorescent substrate for the determination of the compounds activity.
The fluorogenic substrate was built in three parts: a Green fluorescent protein (EGFP), a peptide corresponding to the NS5A-NS5B junctions ([…]) and a Cellulose Binding Domain (CBD). The NS5A/B is the more efficiently cleavage site for NS3 than at other cleavage site of HCV polyprotein (references 15). After cleavage reaction of EGFP-NS5A/B-CBD by NS3, the un-cleaved substrate and the C-terminal domain of cleaved substrate are fixed on cellulose. After centrifugation, the released free EGFP-NS5A was quantified by fluorometry.
The inhibitors were tested in triplicate in each experiment. The inhibitor was pre-incubated with the NS3 enzyme (50 nM final concentration) for 5 minutes at 37° C. The substrate was added (100 nM final concentration) and incubated at 37° C. for 40 minutes. Then, the reaction mixture was transferred into an Eppendorf containing 5 mg of pre-equilibrated cellulose with reaction buffer 1× and agitated at room temperature for 10 minutes followed by centrifugation for 5 min at 13000 rpm. The supernatant (100 μL) containing liberated green fluorescent protein was transferred to a black 96 well plate and data was collected by a fluorometer (excitation λ=485 nm, and emission λ=538 nm). For each black 96 well plate the control of the activity and inhibition of NS3 protease, fluorescence background noise and the measure of the total fluorescence were performed. The fluorogenic substrate EGFP-NS5A/B-CBD at 100 nM final concentration was incubated with NS3 protease at 50 nM final concentration for the control of the NS3 activity. The inhibitors Ac-Asp-D-Gla-Leu-Ile-β-cyclohexyl-Ala-Cys-OH (CHAC), (references 16) PMSF and TPCK were used at various concentrations to validate the inhibition of NS3 protease reaction. The fluorescence background noise was obtained with the fluorogenic substrate EGFP-NS5A/B-CBD at 100 nM, and the control of the maximum fluorescence was obtained with the fluorogenic substrate EGFP-NS5A/B-CBD at 100 nM without the step of the fixation on pre-equilibrated cellulose.

[2] = tested on: HCV; experiment: HCV replication in primary cultures of human hepatocytes infected in vitro; format: cell-based, HCV genotype 3 (serum S183) in human hepatocytes; details: 1 μM of compound; hepatocyte cultures FT200, FT201, FT203; 5 days; FIG. 5
Protocol: More particularly, the in vitro primary cultures of human hepatocytes were prepared as follows: hepatocytes were prepared from liver tissue resected from donors who tested negative for HCV, and inoculation was performed 3 days after plating with 33 HCV serum samples of different virus load and genotype. The presence of intracellular HCV RNA, detected by a strand-specific rTth RT-PCR assay, was used as evidence of infection. […] At day 5, the copy level of viral RNA was estimated to be amplified at least 15-fold in infected cells. […] This model represents therefore a valuable tool for the study of initial steps of the HCV replication cycle and for the evaluation of antiviral molecules.
The basic protocol was as follows: 1) human hepatocytes extracted from liver lobectomies of HCV-negative patients were cultured in the long-term culture system mentioned above; 2) cells were then infected in vitro with an aliquot of serum from HCV-positive patients; 3) after a few days of culture (1 to 14 days), cellular RNA was extracted and analyzed for HCV RNA (+) and (−) strands using a highly specific rtTh. […]
RNA was extracted and analyzed using: first, rtTh RT-PCR and agarose gel electrophoresis (control of the presence of the replicative strand); and second, quantitative RT-PCR using (a) the genomic strand of HCV, and (b) GAPDH RNA/GAPDH RNA as an internal control. […]

[3] = tested on: four different strains; experiment: ames test; details: with or without metabolic activation
Excerpt: The compounds of the present invention present the advantage to be non bactericidal and/or non mutagenic. The ames test with four different strains, with or without metabolic activation, has been carried out with the above cited compounds (in particular, compound 5). The results thereof have shown that the compounds above identified (in particular, compound 5) are non mutagenic.

[4] = enzyme 50 nM, substrate 100 nM, 37° C., 40 minutes, read-out: NS3 IC50

Sequence of full-length NS3/NS4A complex (P27958 1027-1657): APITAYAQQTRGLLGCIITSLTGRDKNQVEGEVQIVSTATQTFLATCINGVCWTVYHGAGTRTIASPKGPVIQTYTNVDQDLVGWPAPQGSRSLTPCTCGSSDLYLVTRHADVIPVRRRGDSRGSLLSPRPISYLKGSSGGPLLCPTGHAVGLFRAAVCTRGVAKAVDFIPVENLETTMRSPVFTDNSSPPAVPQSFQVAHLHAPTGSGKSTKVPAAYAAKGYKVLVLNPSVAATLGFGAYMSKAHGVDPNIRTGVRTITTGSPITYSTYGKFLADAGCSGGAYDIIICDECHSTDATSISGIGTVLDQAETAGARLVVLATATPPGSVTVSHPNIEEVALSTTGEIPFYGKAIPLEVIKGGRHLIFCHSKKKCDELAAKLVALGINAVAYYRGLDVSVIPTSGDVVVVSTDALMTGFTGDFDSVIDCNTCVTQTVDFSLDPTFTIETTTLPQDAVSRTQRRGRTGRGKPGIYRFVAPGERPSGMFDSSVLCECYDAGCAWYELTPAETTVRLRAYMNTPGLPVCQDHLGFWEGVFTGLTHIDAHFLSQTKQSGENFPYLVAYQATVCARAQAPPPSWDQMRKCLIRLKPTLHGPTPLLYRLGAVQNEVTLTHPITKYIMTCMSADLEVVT
Sequence of full-length NS3/NS4A complex (P27958 1658-1711): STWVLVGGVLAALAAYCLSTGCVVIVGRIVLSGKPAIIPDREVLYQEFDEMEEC

| SMILES | IC50 [1] [µM] | IC50 [1, 4] [µM] | Inhibitory effect expressed as the ratio HCV RNA/GAPDH RNA [2] | mutagenicity (ames test) [3] |
| --- | --- | --- | --- | --- |
| CC[C@H](C)[C@H](NC(=O)[C@H](CC(C)C)NC(=O)[C@@H](CC(C(=O)O)C(=O)O)NC(=O)[C@H](CC(=O)O)NC(C)=O)C(=O)N[C@@H](CC1CCCCC1)C(=O)N[C@@H](CS)C(=O)O [CHAC, Ac-Asp-D-Gla-Leu-Ile-β-cyclohexyl-Ala-Cys-OH, reference compound] (Ac-D[dGla]LI[Cha]C-OH) | 0.04 |  |  |  |
| CC(C)(C)OC(=O)N[C@@H](CCC(=O)O)C(=O)N1C[C@H](OC(C)(C)C)C[C@H]1C(=O)NC(CC(F)(F)F)C(=O)O (stereo partly drawn) [Compound 5] |  | 150 | significant inhibitory effect | non mutagenic |
| CC[C@H](NC(=O)[C@@H]1C[C@@H](OC(C)(C)C)CN1C(=O)[C@@H](NC(C)=O)C(C)C)C(=O)O [Compound 18] (Ac-Val-[Hyp](tBu)-[Abu]-OH) |  | 30 |  |  |
| Cc1ccc(S(=O)(=O)NC(Cc2ccccc2)C(=O)CCl)cc1 [TPCK, L-1-4′-Tosylamino-2-phenylethyl chloromethyl ketone, reference compound] | 900 |  |  |  |
